# Laboratory results published in ChEMBL document CHEMBL4406843, “β-Amino acid derivatives as mitochondrial complex III inhibitors of L. donovani: A promising chemotype targeting visceral leishmaniasis” (Eur J Med Chem, 2019).
# Tests used:
# [1] = tested on: Leishmania donovani; experiment: Antileishmanial activity against promastigote stage of Leishmania donovani MHOM/IN/80/Dd8 harboring luciferase reporter gene at 100 uM after 48 hrs by Steady-Glo luminescence assay relative to control; type: functional; conditions: MHOM/IN/80/Dd8, 48 h
# [2] = Cytotoxicity against African green monkey Vero cells assessed as cell viability at 100 uM by MTT assay relative to control; type: cell-based; conditions: chlorocebus sabaeus, read-out: Activity
# [3] = Cytotoxicity against African green monkey Vero cells assessed as cell viability at 25 uM by MTT assay relative to control; type: cell-based; conditions: chlorocebus sabaeus, read-out: Activity
# [4] = tested on: Leishmania donovani; experiment: Antileishmanial activity against promastigote stage of Leishmania donovani MHOM/IN/80/Dd8 harboring luciferase reporter gene at 50 uM after 48 hrs by Steady-Glo luminescence assay relative to control; type: functional; conditions: MHOM/IN/80/Dd8, 48 h
# [5] = tested on: Leishmania donovani; experiment: Antileishmanial activity against Leishmania donovani MHOM/IN/80/Dd8 amastigotes harboring luciferase reporter gene infected in mouse J774 cells at 25 uM after 72 hrs by Steady-Glo luminescence assay relative to control; type: functional; conditions: MHOM/IN/80/Dd8, J774, 72 h
# [6] = tested on: Leishmania donovani; experiment: Antileishmanial activity against Leishmania donovani MHOM/IN/80/Dd8 amastigotes harboring luciferase reporter gene infected in mouse J774 cells at 50 uM after 72 hrs by Steady-Glo luminescence assay relative to control; type: functional; conditions: MHOM/IN/80/Dd8, J774, 72 h
# [7] = Cytotoxicity against African green monkey Vero cells assessed as cell viability at 50 uM by MTT assay relative to control; type: cell-based; conditions: chlorocebus sabaeus, read-out: Activity
# [8] = tested on: Leishmania donovani; experiment: Antileishmanial activity against promastigote stage of Leishmania donovani MHOM/IN/80/Dd8 harboring luciferase reporter gene at 25 uM after 48 hrs by Steady-Glo luminescence assay relative to control; type: functional; conditions: MHOM/IN/80/Dd8, 48 h
# [9] = tested on: Leishmania donovani; experiment: Antileishmanial activity against Leishmania donovani MHOM/IN/80/Dd8 amastigotes harboring luciferase reporter gene infected in mouse J774 cells at 100 uM after 72 hrs by Steady-Glo luminescence assay relative to control; type: functional; conditions: MHOM/IN/80/Dd8, J774, 72 h
# [10] = Selectivity index, ratio of CC50 for mouse J774 cells to IC50 for antileishmanial activity against Leishmania donovani MHOM/IN/80/Dd8 amastigotes harboring luciferase reporter gene; type: toxicity; conditions: read-out: Ratio CC50/IC50
# [11] = Selectivity index, ratio of CC50 for African green monkey Vero cells to IC50 for antileishmanial activity against Leishmania donovani MHOM/IN/80/Dd8 amastigotes harboring luciferase reporter gene; type: toxicity; conditions: read-out: Ratio CC50/IC50
SMILES,inhibition at 100 µM [1] [%],viability at 100 µM [2] [%],viability at 25 µM [3] [%],inhibition at 50 µM [4] [%],inhibition at 25 µM [5] [%],inhibition at 50 µM [6] [%],viability at 50 µM [7] [%],inhibition at 25 µM [8] [%],inhibition at 100 µM [9] [%],selectivity ratio [10],selectivity ratio [11]
CCOC(=O)C(C(=O)c1ccc(OC)cc1)C(NC(C)=O)c1ccc(OC)c(OC)c1 (stereo not drawn),35.8,88.5,99.1,35,57.1,58.1,96.7,30.2,59.2,,
CCOC(=O)C(C(=O)c1ccc(OC)cc1)C(NC(C)=O)c1cc(OC)c(OC)c(OC)c1 (stereo not drawn),43.1,88.9,97.8,40.2,25.4,51.1,94.3,28.3,51.3,,
CCOC(=O)C(C(=O)c1ccc(OC)cc1)C(NC(C)=O)c1ccc(C(C)(C)C)cc1 (stereo not drawn),54.3,89.5,94.5,52.4,40.5,46.1,92.3,40.2,53.1,,
CSc1ccc(C(=O)C(c2ccc(Cl)c(Cl)c2)C(NC(C)=O)c2cccc3ccccc23)cc1 (stereo not drawn),78.6,87.2,90.1,74.3,25,31.5,89.3,55.8,36.4,,
CSc1ccc(C(=O)C(c2ccc(Cl)c(Cl)c2)C(NC(=O)c2ccccc2)c2cccc3ccccc23)cc1 (stereo not drawn),45.6,89.2,98.2,42.1,43.1,69.4,93.9,33.4,72.3,,
CCCCCCCCCCCCCCCCOP(=O)([O-])OCC[N+](C)(C)C [MILTEFOSINE],,,,,,,,,,5.8,5.3
CSc1ccc(C(=O)C(c2ccc(Cl)c(Cl)c2)C(NC(=O)c2cccc(C)c2)c2cc3ccccc3s2)cc1 (stereo not drawn),35.1,87.3,92.1,30.4,12,21.9,90.6,24.3,27.2,,
CSc1ccc(C(=O)C(c2ccc(Cl)c(Cl)c2)C(NC(=O)c2ccccc2)c2cc3ccccc3s2)cc1 (stereo not drawn),33.2,88,97.2,30.5,11.8,16.5,92.4,22.4,18.3,,
CSc1ccc(C(=O)C(c2ccc(Cl)c(Cl)c2)C(NC(=O)c2ccc(Br)cc2)c2cccc3ccccc23)cc1 (stereo not drawn),77.2,88.5,92.8,74.9,21.2,38.3,90.2,56.3,39.2,,
CSc1ccc(C(=O)/C(=C/c2ccccn2)c2ccc(Cl)c(Cl)c2)cc1,76.6,89.6,97.9,74.6,17.5,36.2,93.6,53.4,38.5,,
